Results as given in patent publication US11452699B2, “Method of treating or preventing tumors of the central nervous system” (Berg LLC, priority 2011, dated 2022).

Legend:
Type in all cases: in vivo
[1] = test system: CNS chloroleukemia (metastatic, leukemic CNS tumors); experiment: Long term effect of CoQ10 on CNS chloroleukemia in paraplegic Fischer 344 rats (Example 2)
Protocol: FIG. 4: Long-term Effect of CoQ10 on CNS Leukemia. 300 paraplegic animals with overt CNS leukemia were randomized into two groups of 150 animals each: one received phosphate buffered saline (PBS) and the other group received 100 mg/kg CoQ10 once daily starting on day 1 through day 28 (first cycle). A second cycle of 100 mg/kg CoQ10 once daily started on day 35 and continued through day 62. Animals received two cycles of 28 days each of CoQ10. On days 173 and 195 as indicated by *, 5 animals were sacrificed for necropsy and pathology analysis.
The model of CNS chloroleukemia in Fischer 344 rats provided in Example 1 was used for long term studies of the treatment of metastatic, leukemic CNS tumors. As in Example 1 chloroleukemic cells were injected into the rats as newborns and lipopolysaccharide (LPS) was given as a first-line of treatment. The cure rate with this regimen was approximately 50%, and approximately 10% of survivors developed CNS leukemia as judged by their motor skills and the presence of quadriplegia and paraplegia.
For this study of long term effect of CoQ10 on CNS leukemia, 300 paraplegic animals with overt CNS leukemia were randomized into two groups of 150 animals each. Group one received a saline control. Group two received 100 mg/kg CoQ10 once daily starting on day 1 through day 28 (first cycle). The second cycle started on day 35 and continued through day 62. […]

[2] = test system: CNS chloroleukemia (chloroleukemic cell line MIAC51); experiment: Treatment of CNS chloroleukemia in paraplegic Fischer 344 rats with CoQ10 IV (Example 1)
Protocol: (§1) A model of CNS chloroleukemia was created using Fischer 344 rats, in which chloroleukemic cells were injected into the rats as newborns and lipopolysaccharide (LPS) was given as a first-line of treatment. The cure rate with this regimen was approximately 50%, and approximately 10% of survivors developed CNS leukemia as judged by their motor skills and the presence of quadriplegia and paraplegia.
(§2) For this study, 2400 Fischer 344 neonates were injected with the chloroleukemic cell line MIAC51 and treated with LPS. All animals with overt signs of leukemia, i.e., systemic disease, were sacrificed by day 26. […] Of that cohort, 150 animals were selected with hind leg paraplegia on day 40, see FIGS. 1A and 1B. These animals were then re-randomized into 5 groups: group 1 received no treatment, group 2 received excipient control IV, group 3 received 5 mg/kg CoQ10 IV (i.e., 15 mg/kg/day), group 4 received 10 mg/kg IV (i.e., 30 mg/kg/day), and group 5 received 25 mg/kg IV (i.e., 75 mg/kg/day) for 4 weeks, 3 times daily.

chloroleukemic cells = experiment: First-line lipopolysaccharide treatment of chloroleukemia in Fischer 344 rats injected as newborns (model creation)
Protocol: as §1, §2

Row | Compound | necropsy and pathological analysis for chloroleukemia or CNS tumors ([1]; 100 mg/kg CoQ10, five animals sacrificed on days 173 and 195) | recovery of motor skills / ability to walk ([1]; 100 mg/kg IV once daily, two cycles of 28 days (days 1-28 and 35-62)) | signs of improvement (CNS abnormalities, motor skills) ([2]; 5 mg/kg IV 3 times daily (15 mg/kg/day) for 4 weeks, group 3) | MRI for tumor cells ([2]; 5 mg/kg IV 3 times daily (15 mg/kg/day), group 3) | signs of improvement (CNS abnormalities, motor skills) ([2]; 10 mg/kg IV 3 times daily (30 mg/kg/day) for 4 weeks, group 4) | MRI for tumor cells ([2]; 10 mg/kg IV 3 times daily (30 mg/kg/day), group 4) | recovery of motor skills / ability to walk ([2]; 25 mg/kg IV three times per day (75 mg/kg/day) for 4 weeks, group 5) | MRI for tumor cells ([2]; 25 mg/kg IV three times per day (75 mg/kg/day), group 5, FIGS. 3A and B) | mortality due to CNS tumors (mortality curves) ([2]; FIG. 2, animals treated with or without CoQ10, 5, 10, 25 mg/kg IV 3 times daily) | cure rate (chloroleukemic cells; LPS as first-line treatment after injection of chloroleukemic cells into newborn rats) | survivors that developed CNS leukemia (motor skills, quadriplegia and paraplegia) (chloroleukemic cells; survivors of LPS first-line regimen)
1 | COC1=C(OC)C(=O)C(C/C=C(\C)CC/C=C(\C)CC/C=C(\C)CC/C=C(\C)CC/C=C(\C)CC/C=C(\C)CC/C=C(\C)CC/C=C(\C)CC/C=C(\C)CCC=C(C)C)=C(C)C1=O [CoQ10, Coenzyme Q10] | No evidence of chloroleukemia or CNS tumors were found | significant recovery of their motor skills and regained their ability to walk | did not exhibit any signs of improvement | positive for tumor cells | did not exhibit any signs of improvement | positive for tumor cells | significant recovery of their motor skills and regained their ability to walk | lack of tumor cells | decrease in mortality due to CNS tumors is observed in a dose-dependent manner |  | 
2 | lipopolysaccharide [lipopolysaccharide (LPS)] |  |  |  |  |  |  |  |  |  | approximately 50% | approximately 10%
